The values that follow come from ChEMBL document CHEMBL2384983, “A cyclodextrin-capped histone deacetylase inhibitor” (Bioorg Med Chem Lett, 2013).

Molecules are shown by their SMILES.

In assay [1] the target is Histone deacetylase 2 (Homo sapiens, UniProt Q92769). Kind of assay: Inhibition of HDAC2 (unknown origin).
The target of assay [2] is Histone deacetylase 3 (Homo sapiens, UniProt O15379). Kind of assay: Inhibition of HDAC3 (unknown origin).
In assay [3] the target is T1, Protein deacetylase HDAC6 (Homo sapiens, UniProt Q9UBN7).
T1 sequence (Q9UBN7 whole entry): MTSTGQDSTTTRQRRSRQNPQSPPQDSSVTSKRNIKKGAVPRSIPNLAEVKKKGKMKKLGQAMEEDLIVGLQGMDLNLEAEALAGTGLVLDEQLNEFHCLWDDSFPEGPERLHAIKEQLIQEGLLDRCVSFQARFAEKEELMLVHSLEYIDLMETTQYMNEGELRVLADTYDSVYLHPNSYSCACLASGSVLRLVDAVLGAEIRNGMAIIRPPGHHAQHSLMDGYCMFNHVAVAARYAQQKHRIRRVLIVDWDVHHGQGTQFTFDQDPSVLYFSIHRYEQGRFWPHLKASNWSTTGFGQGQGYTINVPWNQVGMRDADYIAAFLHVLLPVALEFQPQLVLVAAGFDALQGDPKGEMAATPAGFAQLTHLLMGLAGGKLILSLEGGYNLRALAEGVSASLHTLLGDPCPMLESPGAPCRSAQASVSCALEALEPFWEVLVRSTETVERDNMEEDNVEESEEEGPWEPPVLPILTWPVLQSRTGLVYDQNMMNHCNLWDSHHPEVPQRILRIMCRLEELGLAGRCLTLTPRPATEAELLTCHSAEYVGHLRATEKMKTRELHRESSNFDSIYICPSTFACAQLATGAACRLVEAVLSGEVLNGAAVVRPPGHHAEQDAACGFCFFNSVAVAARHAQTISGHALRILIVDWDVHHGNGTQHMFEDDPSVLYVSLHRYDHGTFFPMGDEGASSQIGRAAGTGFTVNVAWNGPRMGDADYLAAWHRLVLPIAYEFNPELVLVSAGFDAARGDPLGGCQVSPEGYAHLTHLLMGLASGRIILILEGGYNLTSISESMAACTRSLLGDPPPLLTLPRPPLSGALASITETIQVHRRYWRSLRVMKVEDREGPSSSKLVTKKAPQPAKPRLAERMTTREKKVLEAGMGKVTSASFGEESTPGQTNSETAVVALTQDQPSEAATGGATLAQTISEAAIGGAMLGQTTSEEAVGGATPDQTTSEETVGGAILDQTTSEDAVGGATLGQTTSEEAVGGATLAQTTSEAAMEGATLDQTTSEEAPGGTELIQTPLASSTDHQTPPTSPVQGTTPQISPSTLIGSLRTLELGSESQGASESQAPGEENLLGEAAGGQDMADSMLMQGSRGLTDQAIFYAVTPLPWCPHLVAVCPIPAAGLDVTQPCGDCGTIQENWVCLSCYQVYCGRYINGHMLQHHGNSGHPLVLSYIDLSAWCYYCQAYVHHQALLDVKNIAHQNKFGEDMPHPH
Kind of assay: Inhibition of HDAC6 (unknown origin).

For assay [4], the target named is Histone deacetylase 1 (Homo sapiens, UniProt Q13547). Kind of assay: Inhibition of HDAC1 (unknown origin).
Chain of Histone deacetylase 1 (Q13547 whole entry): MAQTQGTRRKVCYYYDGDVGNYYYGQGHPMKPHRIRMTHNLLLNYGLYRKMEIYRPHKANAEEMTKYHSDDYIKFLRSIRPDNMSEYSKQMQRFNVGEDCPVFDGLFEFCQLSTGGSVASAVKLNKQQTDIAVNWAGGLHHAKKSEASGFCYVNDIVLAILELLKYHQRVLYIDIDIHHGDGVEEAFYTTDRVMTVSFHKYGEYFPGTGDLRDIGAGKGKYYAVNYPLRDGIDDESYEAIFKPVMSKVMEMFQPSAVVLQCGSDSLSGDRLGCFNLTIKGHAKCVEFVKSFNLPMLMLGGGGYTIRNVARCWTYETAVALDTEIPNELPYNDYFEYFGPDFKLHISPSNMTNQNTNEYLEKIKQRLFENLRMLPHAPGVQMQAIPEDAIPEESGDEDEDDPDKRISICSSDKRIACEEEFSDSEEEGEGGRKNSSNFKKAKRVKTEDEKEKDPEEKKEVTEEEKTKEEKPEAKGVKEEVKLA
The target of assay [5] is T2, Histone deacetylase 8 (Homo sapiens, UniProt Q9BY41).
T2 sequence (Q9BY41 whole entry): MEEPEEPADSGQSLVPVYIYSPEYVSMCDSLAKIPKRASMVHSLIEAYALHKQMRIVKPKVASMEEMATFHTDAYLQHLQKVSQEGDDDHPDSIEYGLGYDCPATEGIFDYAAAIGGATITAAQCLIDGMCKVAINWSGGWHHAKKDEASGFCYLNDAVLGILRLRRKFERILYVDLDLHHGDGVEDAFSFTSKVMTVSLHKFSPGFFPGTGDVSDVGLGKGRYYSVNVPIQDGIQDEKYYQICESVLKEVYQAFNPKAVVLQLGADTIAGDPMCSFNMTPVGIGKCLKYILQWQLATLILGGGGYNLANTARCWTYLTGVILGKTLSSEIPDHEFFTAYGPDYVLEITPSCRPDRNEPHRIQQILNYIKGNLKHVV
Kind of assay: Inhibition of HDAC8 (unknown origin).

Chain of Histone deacetylase 2 (Q92769 whole entry): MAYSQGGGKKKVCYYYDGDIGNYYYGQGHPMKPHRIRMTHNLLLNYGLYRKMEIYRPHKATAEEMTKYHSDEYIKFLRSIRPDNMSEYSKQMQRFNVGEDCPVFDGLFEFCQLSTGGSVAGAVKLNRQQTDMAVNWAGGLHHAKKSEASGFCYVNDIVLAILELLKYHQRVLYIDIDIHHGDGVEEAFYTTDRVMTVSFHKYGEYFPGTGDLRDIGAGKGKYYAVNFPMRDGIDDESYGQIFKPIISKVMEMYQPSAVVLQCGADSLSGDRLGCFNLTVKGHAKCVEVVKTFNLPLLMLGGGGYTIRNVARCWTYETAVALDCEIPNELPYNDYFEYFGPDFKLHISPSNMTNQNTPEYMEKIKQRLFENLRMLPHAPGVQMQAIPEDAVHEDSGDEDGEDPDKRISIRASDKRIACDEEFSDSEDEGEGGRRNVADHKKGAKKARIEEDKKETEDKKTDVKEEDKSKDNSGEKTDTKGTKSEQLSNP
Chain of Histone deacetylase 3 (O15379 whole entry): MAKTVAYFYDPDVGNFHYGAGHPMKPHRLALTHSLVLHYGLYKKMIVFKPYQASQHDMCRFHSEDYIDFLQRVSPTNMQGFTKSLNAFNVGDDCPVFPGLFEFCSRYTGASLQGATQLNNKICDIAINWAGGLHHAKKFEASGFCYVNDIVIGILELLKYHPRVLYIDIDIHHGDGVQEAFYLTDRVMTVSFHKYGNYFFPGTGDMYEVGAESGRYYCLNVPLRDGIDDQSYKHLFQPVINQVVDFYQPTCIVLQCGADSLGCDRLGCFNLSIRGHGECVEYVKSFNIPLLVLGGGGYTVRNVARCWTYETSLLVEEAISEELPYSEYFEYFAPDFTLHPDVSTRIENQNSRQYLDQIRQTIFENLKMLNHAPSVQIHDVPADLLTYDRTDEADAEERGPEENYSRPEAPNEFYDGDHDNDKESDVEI

`O=C(CCCCCCC(=O)NC[C@H]1O[C@@H]2O[C@H]3[C@H](O)[C@@H](O)[C@@H](O[C@H]4[C@H](O)[C@@H](O)[C@@H](O[C@H]5[C@H](O)[C@@H](O)[C@@H](O[C@H]6[C@H](O)[C@@H](O)[C@@H](O[C@H]7[C@H](O)[C@@H](O)[C@@H](O[C@H]8[C@H](O)[C@@H](O)[C@@H](O[C@H]1[C@H](O)[C@H]2O)O[C@@H]8CO)O[C@@H]7CO)O[C@@H]6CO)O[C@@H]5CO)O[C@@H]4CO)O[C@@H]3CO)NO`: the IC50 (commonly the concentration that inhibits the measured activity by half) in assay [1] stood at 1200 nM; in assay [2], 1600 nM; in assay [3] it was 120 nM; in assay [4], 630 nM; in assay [5], 6000 nM.
